Results: patent US6706664B1, “Benzoxazole compounds, process for the preparation thereof and herbicides” (UBE Industries, Ltd., priority 1999, dated 2004)

Experiments:
Parameters in all cases: key: 0: normal development; 1: Less damaged; 2: Slightly damaged; 3: Moderately damaged; 4: Severely damaged; 5: All killed
[1] = tested on: annual bluegrass; assay: Soil treatment test for upland field; assay type: in vivo, Poa annua; details: 500 g/ha, glass house 25° C., 3 weeks
Summary of the method: (§1)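 Damage rated on a 0–5 scale (0 normal development, 5 all killed) after 3 weeks in a glasshouse at about 25 °C. Compounds applied as a water-diluted wettable powder (0.05% surfactant) sprayed at 500 g/ha onto soil surface over freshly sown seeds in alluvial Ube soil.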

[2] = tested on: velvetleaf; assay: Foliar spread test for upland field; assay type: in vivo, Abutilon theophrasti; details: foliar spray 500 ppm, 3 weeks, rank vs non-treated
Summary of the method: (§2)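 Scoring used a 0–5 scale, where 0 meant normal development and 5 meant all plants killed, assessed 3 weeks after treatment. Plants had been grown about 2 weeks from seed in volcanic ash soil before a uniform spray at 500 ppm containing 0.5% surfactant.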

[3] = tested on: livid amaranth; assay: Foliar spread test for upland field; assay type: in vivo, Amaranthus lividus; details: foliar spray 500 ppm, 3 weeks, rank vs non-treated
Summary of the method: as §2

[4] = tested on: barnyardgrass; assay: Herbicidal test for paddy field; assay type: in vivo, Echinochloa crusgalli; details: paddy field pot, 500 g/ha dropwise at 1.5 leaf stage of barnyardgrass, 3 weeks, rank vs non-treated
Summary of the method: (§3)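 Scores run on a six-point scale from 0 for normal development to 5 for all plants killed, judged against non-treated pots. Plants were grown in Ube soil under 3 cm of standing water and treated by pipet with 500 g/ha of the compound once barnyardgrass had 1.5 leaves. Assessment followed 3 weeks in a glasshouse averaging 25° C.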

[5] = tested on: green foxtail; assay: Soil treatment test for upland field; assay type: in vivo, Setaria viridis; details: 500 g/ha, glass house 25° C., 3 weeks
Summary of the method: as §1

[6] = tested on: common lambsquartes; assay: Soil treatment test for upland field; assay type: in vivo, Chenopodium album; details: 500 g/ha, glass house 25° C., 3 weeks
Summary of the method: as §1

[7] = tested on: morning glory; assay: Foliar spread test for upland field; assay type: in vivo, Ipomoea spps.; details: foliar spray 500 ppm, 3 weeks, rank vs non-treated
Summary of the method: as §2

[8] = tested on: monochoria; assay: Herbicidal test for paddy field; assay type: in vivo, Monochoria vaginalis; details: paddy field pot, 500 g/ha dropwise at 1.5 leaf stage of barnyardgrass, 3 weeks, rank vs non-treated
Summary of the method: as §3

[9] = tested on: blackgrass; assay: Soil treatment test for upland field; assay type: in vivo, Alopecurus aegualis; details: 500 g/ha, glass house 25° C., 3 weeks
Summary of the method: as §1

[10] = tested on: velvetleaf; assay: Soil treatment test for upland field; assay type: in vivo, Abutilon theophrasti; details: 500 g/ha, glass house 25° C., 3 weeks
Summary of the method: as §1

[11] = tested on: blackgrass; assay: Foliar spread test for upland field; assay type: in vivo, Alopecurus aegualis; details: foliar spray 500 ppm, 3 weeks, rank vs non-treated
Summary of the method: as §2

[12] = tested on: annual bluegrass; assay: Foliar spread test for upland field; assay type: in vivo, Poa annua; details: foliar spray 500 ppm, 3 weeks, rank vs non-treated
Summary of the method: as §2

[13] = tested on: soybean; assay: Soil treatment test for upland field; assay type: in vivo; details: 500 g/ha, glass house 25° C., 3 weeks
Summary of the method: as §1

[14] = tested on: corn; assay: Soil treatment test for upland field; assay type: in vivo; details: 500 g/ha, glass house 25° C., 3 weeks
Summary of the method: as §1

[15] = tested on: cotton; assay: Soil treatment test for upland field; assay type: in vivo; details: 500 g/ha, glass house 25° C., 3 weeks
Summary of the method: as §1

[16] = tested on: wheat; assay: Soil treatment test for upland field; assay type: in vivo; details: 500 g/ha, glass house 25° C., 3 weeks
Summary of the method: as §1

[17] = tested on: sugar beat; assay: Soil treatment test for upland field; assay type: in vivo; details: 500 g/ha, glass house 25° C., 3 weeks
Summary of the method: as §1

[18] = tested on: solgum; assay: Soil treatment test for upland field; assay type: in vivo; details: 500 g/ha, glass house 25° C., 3 weeks
Summary of the method: as §1

[19] = tested on: common lambsquartes; assay: Foliar spread test for upland field; assay type: in vivo, Chenopodium album; details: foliar spray 500 ppm, 3 weeks, rank vs non-treated
Summary of the method: as §2

SMILES	Effects Annual bluegrass [1]	Effects Velvetleaf [2]	Effects Livid amaranth [3]	Effect Barnyardgrass [4]	Effects Green foxtail [5]	Effects Common lambsquarters [6]	Effects Morning glory [7]	Effect Monochoria [8]	Effects Blackgrass [9]	Effects Velvetleaf [10]	Effects Blackgrass [11]	Effects Annual bluegrass [12]	Effects Soybean [13]	Effects Corn [14]	Effects Cotton [15]	Effects Wheat [16]	Effects Sugar beat [17]	Effects Solgum [18]	Effects Common lambsquarters [19]
CCCC(Oc1cccc(C(F)(F)F)c1)c1nc2cc(C(F)(F)F)ccc2o1 (stereo not drawn) [Compound 200]	5	2	4	2	5	4	3	5	4	5	2	4	0	1	1	1	5	1	4
CCC(Oc1cccc(C(F)(F)F)c1)c1nc2cc(F)ccc2o1 (stereo not drawn) [Compound 120]	5	–	5	4	5	4	5	5	3	3	2	1	0	0	0	0	3	1	4
CCCC(Oc1ccc(F)c(C(F)(F)F)c1)c1nc2cc(Cl)ccc2o1 (stereo not drawn) [Compound 141]	5	4	4	5	5	5	4	5	5	5	4	4	2	1	–	0	5	2	4
CCC(Oc1cccc(C(F)(F)F)c1)c1nc2cc(C#N)c(Cl)cc2o1 (stereo not drawn) [Compound 529]	5	3	5	5	5	5	3	5	5	5	4	4	1	1	–	–	5	1	5
CCC(Oc1cccc(C(F)(F)F)c1)c1nc2cc(F)c(C(F)(F)F)cc2o1 (stereo not drawn) [Compound 471]	5	3	5	5	5	5	5	5	5	5	3	3	2	–	1	1	5	3	5
CCC(Oc1ccc(F)c(C(F)(F)F)c1)c1nc2cc(C(F)(F)F)ccc2o1 (stereo not drawn) [Compound 197]	5	3	4	4	5	4	4	5	5	5	4	2	–	2	3	2	5	2	4
CCC(Oc1ccc(Cl)c(C(F)(F)F)c1)c1nc2cc(F)ccc2o1 (stereo not drawn) [Compound 441]	5	–	3	5	5	4	1	5	3	1	2	1	0	0	0	1	5	1	3
